{"source": "paper PMC8112869", "about": "“Therapeutic inhibition of keratinocyte TRPV3 sensory channel by local anesthetic dyclonine” (eLife, 2021)", "key": {"[1]": {"biological_target": "T1, TRPV3 (Mus musculus, UniProt Q8K424)", "T1 construct": "expressed in transfected cells; host or cells: HEK 293T", "T1 sequence (Q8K424 1-791)": "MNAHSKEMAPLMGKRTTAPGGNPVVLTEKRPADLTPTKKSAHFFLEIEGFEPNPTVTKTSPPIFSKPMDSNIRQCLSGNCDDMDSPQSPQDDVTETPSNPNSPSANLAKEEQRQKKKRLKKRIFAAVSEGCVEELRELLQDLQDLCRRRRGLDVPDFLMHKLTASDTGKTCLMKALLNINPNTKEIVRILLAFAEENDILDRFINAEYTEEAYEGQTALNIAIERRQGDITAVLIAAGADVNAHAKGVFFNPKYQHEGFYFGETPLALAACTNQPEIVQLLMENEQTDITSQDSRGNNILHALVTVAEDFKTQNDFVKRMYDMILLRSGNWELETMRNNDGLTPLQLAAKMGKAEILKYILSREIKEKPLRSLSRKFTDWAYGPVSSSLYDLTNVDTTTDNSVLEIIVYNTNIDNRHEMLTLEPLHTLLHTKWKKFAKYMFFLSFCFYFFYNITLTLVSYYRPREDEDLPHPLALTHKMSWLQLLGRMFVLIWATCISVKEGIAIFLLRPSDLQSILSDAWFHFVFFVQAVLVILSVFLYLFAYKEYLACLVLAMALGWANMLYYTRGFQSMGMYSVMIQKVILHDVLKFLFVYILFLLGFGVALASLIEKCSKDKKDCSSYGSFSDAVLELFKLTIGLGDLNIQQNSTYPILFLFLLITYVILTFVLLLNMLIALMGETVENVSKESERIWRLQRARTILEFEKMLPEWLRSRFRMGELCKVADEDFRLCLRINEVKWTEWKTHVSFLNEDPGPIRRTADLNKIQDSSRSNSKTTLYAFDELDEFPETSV", "assay": "Whole-cell recording of carvacrol-evoked TRPV3 currents in HEK 293T cells", "assay_type": "cell-based", "excerpt": "(§1) Conventional whole-cell and excised patch-clamp recording methods were used. For the recombinant expressing system, green fluorescent EGFP was used as a surface marker for gene expression. Recording pipettes were pulled from borosilicate glass capillaries (World Precision Instruments) and fire-polished to a resistance between 2 and 4 MΩ when filled with internal solution containing (in mM) 140 CsCl, 2.0 MgCl2, 5 EGTA, and 10 HEPES, pH 7.4 (adjusted with CsOH). Bath solution contained (in mM): 140 NaCl, 5 KCl, 3 EGTA, and 10 HEPES, pH 7.4 adjusted with NaOH. For recordings in keratinocytes, the bath saline consisted of (in mM) 140 NaCl, 5 KCl, 2 MgCl2, 2 CaCl2, 10 glucoses, and 10 HEPES, pH 7.4 adjusted with NaOH, and the pipette solution contained (in mM) 140 CsCl, 5 EGTA, and 10 HEPES, pH 7.3 adjusted with CsOH. […] For a subset of recordings, currents were amplified using an Axopatch 200B amplifier (Molecular Devices, Sunnyvale, CA) and recorded through a BNC-2090/MIO acquisition system (National Instruments, Austin, TX) using QStudio developed by Dr. Feng Qin at State University of New York at Buffalo. […] As determined by the conductance tests, the solution around a patch under study was fully controlled by the application of a flow rate of 100 μl/min or greater. […]"}, "[2]": {"biological_target": "T1, TRPV3", "assay": "Heat-activated TRPV3 currents (infrared laser temperature jump) in HEK 293T cells", "assay_type": "cell-based", "excerpt": "as §1, with “NaOH.” for “NaOH. For recordings in keratinocytes, the bath saline consisted of (in mM) 140 NaCl, 5 KCl, 2 MgCl2, 2 CaCl2, 10 glucoses, and 10 HEPES, pH 7.4 adjusted with NaOH, and the pipette solution contained (in mM) 140 CsCl, 5 EGTA, and 10 HEPES, pH 7.3 adjusted with CsOH.”\nConstant temperature steps were generated by irradiating the tip of an open pipette and using the current of the electrode as the readout for feedback control. […]"}}, "data": [{"compound": "CCCCOc1ccc(C(=O)CCN2CCCCC2)cc1", "note": "[dyclonine]", "values": [{"measurement": "IC50", "setting": "[1]; 500 μM carvacrol, after sensitization by 300 μM 2-APB, –60 mV, read-out: IC50 for inhibition of carvacrol-evoked TRPV3 currents", "result": "3.5 ± 0.34", "unit": "µM"}, {"measurement": "Hill coefficient nH", "setting": "[1]; carvacrol-evoked", "result": "2.1 ± 0.41"}, {"measurement": "Hill coefficient nH", "setting": "[2]", "result": "1.9 ± 0.54"}]}]}
